In PMC8125440, “A Novel N-Tert-Butyl Derivatives of Pseudothiohydantoin as Potential Target in Anti-Cancer Therapy” (Molecules, 2021):

How the values were obtained:
[1] = target: T1, 11β-hydroxysteroid dehydrogenase type 2 (11β-HSD2) (Homo sapiens, UniProt P80365); test: cortisol to cortisone conversion in human kidney microsomes, cortisol ELISA; type: cell-based
T1 construct: gene HSD11B2
T1 sequence (P80365 1-405): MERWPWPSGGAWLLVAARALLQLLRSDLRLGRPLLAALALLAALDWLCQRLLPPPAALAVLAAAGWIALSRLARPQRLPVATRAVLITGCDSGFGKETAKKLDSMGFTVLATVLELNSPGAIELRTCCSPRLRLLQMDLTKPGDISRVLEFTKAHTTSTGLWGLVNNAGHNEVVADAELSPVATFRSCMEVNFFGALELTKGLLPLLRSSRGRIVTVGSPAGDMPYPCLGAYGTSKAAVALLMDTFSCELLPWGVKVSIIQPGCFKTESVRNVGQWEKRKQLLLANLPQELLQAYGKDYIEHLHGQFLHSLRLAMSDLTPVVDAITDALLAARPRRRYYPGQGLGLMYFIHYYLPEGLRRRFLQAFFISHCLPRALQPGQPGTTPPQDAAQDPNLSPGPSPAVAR

[2] = target: T2, 11β-hydroxysteroid dehydrogenase type 1 (11β-HSD1) (Homo sapiens, UniProt P28845); test: cortisone to cortisol conversion in pooled human liver microsomes, cortisol ELISA; type: cell-based
T2 construct: gene HSD11B1
T2 sequence (P28845 whole entry): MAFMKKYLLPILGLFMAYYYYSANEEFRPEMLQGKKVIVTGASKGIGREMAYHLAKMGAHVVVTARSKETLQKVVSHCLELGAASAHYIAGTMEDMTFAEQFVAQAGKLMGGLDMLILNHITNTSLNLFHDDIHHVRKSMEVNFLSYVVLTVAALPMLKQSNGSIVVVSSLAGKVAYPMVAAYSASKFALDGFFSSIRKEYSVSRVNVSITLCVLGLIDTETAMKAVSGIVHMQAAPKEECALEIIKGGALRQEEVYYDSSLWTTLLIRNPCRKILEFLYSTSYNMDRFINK

Row | SMILES | inhibition at 10 µM [1] | inhibition at 10 µM [2]
1 | CC(C)(C)NC1=NC(=O)C(c2ccccc2)S1 (centres unmarked) [3f, 2-(tert-Butylamino)-5-phenylthiazol-4(5H)-one] | 53.6% | –
2 | CC(C)(C)NC1=NC(=O)C2(CCCCC2)S1 [3h, 2-(tert-Butylamino)-1-thia-3-azaspiro[4.5]dec-2-en-4-one] | – | 82.5%
